{
  "source": "patent US10568854B2",
  "about": "“Compositions and methods for treating kabuki syndrome and related disorders” (THE JOHNS HOPKINS UNIVERSITY, priority 2014, dated 2020)",
  "key": {"[1]": {"tested_on": "Kmt2d^+/βGeo mice (mouse model of Kabuki syndrome)", "test": "Morris water maze (Example 1)", "type": "in vivo", "conditions": "10 mg/kg/day", "from_the_text": "Animals: Kmt2d^+/βGeo mice, also named Mll2Gt^(RRt024)Byg, were acquired from Bay Genomics (University of California). All experimental mice were on a mixed C57BL/6J and 129/SvEv background. Expected Mendelian ratios were observed when heterozygous animals were bred to wild-type. In heterozygous crosses, however, there was uniform embryonic lethality of homozygotes by ED12, the earliest developmental stage assayed. For treatment with AR-42 mice were orally gavaged daily with drug (Selleck Chemicals, Houston, Tex.) solubilized in vehicle (0.5% methylcellulose, 0.1% Tween-80, water) or with vehicle alone. Drug delivery information was kindly provided by Drs. […] For quantification of DCX positive cells, doses of 0, 5, 10 and 25 mg/kg/day were used. […] Maxillary protrusion was evaluated by ten investigators blinded to genotype and they were asked to rate maxillary protrusion on radiographs as either large (2) or small (1). […]\nMorris water maze: Mice were placed in a 1.1 meter diameter tank filled with room temperature water dyed with non-toxic white paint. […] Latency to reach the platform was measured during each trial. […] Average number of crossings of the platform's previous location was recorded. […] For all training and probe testing, data was recorded both manually and electronically with ANY-maze software (San Diego Instruments, San Diego, Calif.) when applicable. […]"}, "[2]": {"tested_on": "H3K4 trimethylation and histone acetylation", "conditions": "cited from earlier work"}, "[3]": {"tested_on": "DCX positive cells in the GCL", "test": "DCX (doublecortin) expression in the GCL, neurogenesis (AR-42 treated mice)", "type": "in vivo, mouse", "from_the_text": "Animals: Kmt2d^+/βGeo mice, also named Mll2Gt^(RRt024)Byg, were acquired from Bay Genomics (University of California). All experimental mice were on a mixed C57BL/6J and 129/SvEv background. Expected Mendelian ratios were observed when heterozygous animals were bred to wild-type. In heterozygous crosses, however, there was uniform embryonic lethality of homozygotes by ED12, the earliest developmental stage assayed. For treatment with AR-42 mice were orally gavaged daily with drug (Selleck Chemicals, Houston, Tex.) solubilized in vehicle (0.5% methylcellulose, 0.1% Tween-80, water) or with vehicle alone. Drug delivery information was kindly provided by Drs. Chen and Kulp from Ohio State University (Huang et al. (2011) Mol. Pharmacol. 79:197-20619). Drug was administered for 14 days and mice were sacrificed on day 15. Morris water maze testing was initiated at day 7 and a dose of 10 mg/kg/day was used for these studies. For quantification of DCX positive cells, doses of 0, 5, 10 and 25 mg/kg/day were used. Genotyping was performed using primers B-GeoF-([…]; SEQ ID NO: 1) and B-GeoR-([…]; SEQ ID NO: 2) that are specific for the targeted allele and TcrdF-([…]; SEQ ID NO: 3) and TcrdR-([…]; SEQ ID NO: 4) that control for sufficient DNA concentration. Real-time PCR using the same primers allows discrimination between the heterozygous and homozygous state for the targeted allele. Maxillary protrusion was evaluated by ten investigators blinded to genotype and they were asked to rate maxillary protrusion on radiographs as either large (2) or small (1). […] All experiments were performed using mouse protocols approved by the Animal Care and Use Committee of Johns Hopkins University School of Medicine. The mouse protocols used for this study are in accordance with the guidelines used by the NIH for mouse care and handling.\nImmunofluorescence: Every 6th brain section was selected and then blocked with 5% Bovine Serum Albumin (BSA) at room temperature followed by incubation with primary antibodies overnight at 4° C. Secondary antibodies were then applied for 1 hour at room temperature, after which sections were mounted onto microscope slides with Vectamount with DAPI (Vector Laboratories, Burlingame, Calif.). Primary antibodies included Doublecortin (DCX) (SC-8066, Santa Cruz Biotechnology, Dallas, Tex., 1:200 goat), trimethylated H3K4 (9727L, Cell Signaling Technology, Beverly, Mass., 1:500 rabbit), and Kmt2d H-300 (SC-292359, Santa Cruz Biotechnology, Dallas, Tex., 1:500 rabbit). Non-specific binding was not observed when sections were sequentially exposed to serum (or IgG when appropriate) from the same species as the primary antibody for each experiment (i.e. rabbit for KMT2D and H3K4me3 and goat for doublecortin), followed by the secondary antibody used for KMT2D and H3K4me3 (anti-rabbit) or doublecortin (anti-goat, FIG. 27).\nGCL and doublecortin area: The area of both the GCL and DCX+ cells was measured using the NS elements 2.0 software (Nikon, Tokyo, JPN). Normalized DCX area was calculated by measuring the DCX+ area of the GCL and setting the baseline (Kmt2d^+/+) fraction to 1. A Student t-test with significance value set at P<0.05 was used for comparison of DCX+ area referenced to GCL area between genotypes and treatment arms."}, "Klf10 expression": {"tested_on": "Klf10 expression", "test": "Real-time PCR of Kmt2d target gene Klf10 in spleen cells", "type": "in vivo, mouse", "conditions": "Kmt2d^+/βGeo mice", "experimental": "Real time PCR: Real-time PCR was performed using Kmt2d-specific probes for exons 20 and 52 (Mm_02600438 and Mm_01717664, respectively) from TaqMan® Gene Expression Assays (Life Technologies, Carlsbad, Calif.). For a comparison of transfection efficiencies for indicator constructs in transient transfection studies, real-time PCR was performed using SYBR Green Real-Time PCR Master Mix (Life Technologies, Carlsbad, Calif.) and primers IND-F-([…]; SEQ ID NO: 5) and IND-R-([…]; SEQ ID NO: 6) that are specific for the H3K4 methylation indicator. For expression analysis for KMT2D target gene KLF10, real-time PCR was performed using Klf10-specific expression assay (Mm00449812_m1) from TaqMan® Gene Expression Assays (Life Technologies, Carlsbad, Calif.)."}},
  "note": "“Also recorded” adds a separate entry of the source.",
  "data": [
    {"smiles": "CC(C)[C@H](C(=O)Nc1ccc(C(=O)NO)cc1)c1ccccc1", "note": "[AR-42, (S)—N-hydroxy-4-(3-methyl-2-phenylbutanamido)benzamide]", "values": [
      {"measurement": "frequency of platform crossing during probe trial", "setting": "[1]", "value": "improved performance for both genotypes; also recorded: normalized"},
      {"measurement": "escape latency during training, with versus without drug", "setting": "[1]; Kmt2d^+/βGeo animals", "value": "No significant difference is observed"},
      {"measurement": "relative effect on H3K4me3", "setting": "[2]; AR-42 versus MS275, Huang et al. (2011)", "value": "strongest effect on H3K4me3"},
      {"measurement": "effect on H3K4 trimethylation and histone acetylation", "setting": "[2]; Huang et al. (2011)", "value": "increase H3K4 trimethylation and histone acetylation"},
      {"measurement": "DCX expression in the GCL", "setting": "[3]; 10 mg/kg/day, older mice (5-6 months), Kmt2d^+/βGeo", "value": "improved"},
      {"measurement": "DCX expression in the GCL", "setting": "[3]; 25 mg/kg/day, Kmt2d^+/+ animals", "value": "reduced DCX expression"},
      {"measurement": "DCX expression in the GCL", "setting": "[3]; 25 mg/kg/day, Kmt2d^+/βGeo mice", "value": "did not improve DCX expression"},
      {"measurement": "DCX expression in the GCL", "setting": "[3]; 25 mg/kg/day, young (1-2 month-old) and old (5-6 month-old), both genotypes", "value": "decreased DCX expression"},
      {"measurement": "neurogenesis (normalized DCX expression)", "setting": "[3]; 1-2 month old Kmt2d^+/βGeo mice, doses 0, 5, 10 mg/kg/day", "value": "dose-dependent increase in neurogenesis"},
      {"measurement": "DCX expression in the GCL", "setting": "[3]; 5 and 10 mg/kg/day, Kmt2d^+/+ or Kmt2d^+/βGeo, both age groups", "value": "preservation or restoration of DCX expression"},
      {"measurement": "Klf10 expression in spleen cells", "setting": "Klf10 expression", "value": "normalization of expression of Klf10; also recorded: normalized"}
    ]}
  ]
}
